Test results as given in patent publication US5374772A, “Substituted benzoic acids, inhibitors of phospholipases A2” (Hoffmann-LaRoche Inc., priority 1993, dated 1994).

Test system: paw edema induced by Naja naja venom phospholipase A2
Test: Phospholipase A2 Rat Paw Edema
Assay type: in vivo, Lewis rats
Conditions: 30 mg/kg ip, measured 2 hours after PLA2 injection

CCCCCCCCCCCCCCCCCCOc1cc(OC(=O)C(c2ccccc2)c2ccccc2)cc(C(=O)O)c1 [Example 11, 3-(Octadecyloxy)-5-(2,2-diphenyl-1-oxoethoxy) benzoic acid]
inhibition of edema (PLA2 rat paw edema): 29%
